According to patent US9102591B2, “Benzamides” (H. Lundbeck A/S, priority 2012, dated 2015):

Target: P2X7 receptor (Homo sapiens (Human), UniProt Q99572)
Assay: P2X7 FLIPR assay (BzATP-stimulated calcium fluorescence, antagonist IC50)
Format: cell-based
Method in brief: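 Cells expressing P2X7 receptor (human, rat or mouse), plated 24 hours earlier in low-serum medium, loaded with Fluo-4 NW dye (30 min 37° C, 30 min room temperature).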

Chain of P2X7 receptor (Q99572 whole entry): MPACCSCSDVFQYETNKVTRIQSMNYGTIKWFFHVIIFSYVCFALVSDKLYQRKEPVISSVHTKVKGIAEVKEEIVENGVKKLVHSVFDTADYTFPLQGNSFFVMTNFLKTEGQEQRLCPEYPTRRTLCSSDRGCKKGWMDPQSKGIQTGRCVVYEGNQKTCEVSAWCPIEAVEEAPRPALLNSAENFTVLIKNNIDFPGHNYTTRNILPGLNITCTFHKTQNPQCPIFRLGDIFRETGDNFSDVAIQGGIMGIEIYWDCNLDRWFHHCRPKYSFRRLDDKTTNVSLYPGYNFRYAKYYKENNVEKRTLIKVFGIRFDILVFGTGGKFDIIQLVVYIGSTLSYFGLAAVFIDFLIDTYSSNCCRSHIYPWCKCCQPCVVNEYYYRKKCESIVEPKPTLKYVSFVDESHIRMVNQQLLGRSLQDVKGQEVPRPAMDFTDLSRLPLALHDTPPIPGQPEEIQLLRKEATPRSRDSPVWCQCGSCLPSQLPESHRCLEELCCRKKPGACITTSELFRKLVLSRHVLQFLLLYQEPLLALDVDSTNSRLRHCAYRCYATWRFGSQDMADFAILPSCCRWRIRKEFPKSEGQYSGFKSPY

| SMILES | IC50 [nM] |
| --- | --- |
| CC(CNC(=O)c1cccc(F)c1Cl)(CC1CC1)c1cnc(C(F)(F)F)nc1 (stereo not shown) [2-chloro-N-[3-cyclopropyl-2-methyl-2-[2-(trifluoromethyl)pyr] [2-chloro-N-[3-cyclopropyl-2-methyl-2-[2-(trifluoromethyl)pyrimidin-5-yl]propyl]-3-fluoro-benzamide] | 16 |
| Cc1ccc(C(F)(F)F)cc1C(=O)NCC1(c2ccc(C(F)(F)F)nc2)CCC(F)(F)CC1 [N-((4,4-difluoro-1-(6-(trifluoromethyl)pyridin-3-yl)cyclohexyl)methyl)-2-methyl-5-(trifluoromethyl)benzamide] | 39 |
| COc1ccc(Cl)c(C(=O)NCC2(c3ccc(F)nc3)CCC(F)(F)CC2)c1 [2-chloro-N-((4,4-difluoro-1-(6-fluoropyridin-3-yl)cyclohexyl)methyl)-5-methoxybenzamide] | 0.83 |
| O=C(NCC(c1ccc(F)cc1)c1cnc(C(F)(F)F)nc1)c1c(F)cccc1Cl (single isomer, unassigned; (-)) [(−)2-chloro-6-fluoro-N-[2-(4-fluorophenyl)-2-[2-(trifluorome] [(−)2-chloro-6-fluoro-N-[2-(4-fluorophenyl)-2-[2-(trifluoromethyl)pyrimidin-5-yl]ethyl]benzamide] | 2.6 |
